Source: US12030875B2, “EIF4E inhibitors and uses thereof” (PIC Therapeutics, Inc., priority 2018, dated 2024)

Molecular target: T1, Human eIF4E (Homo sapiens, UniProt P06730)
T1 construct: Human eIF4E (aa 28-217) with a C-terminal His-tag; made in house
Assay: Human eIF4E/4G2 binding assay (TR-FRET)
Settings: eIF4E (aa 28-217) with biotin labeled 4G2 peptide
Procedure: Human eIF4E (aa 28-217) with a C-terminal His-tag was expressed in E. coli in inclusion bodies. The protein was solubilized with 8 M urea and purified under denaturing conditions using nickel-charged HisTrap HP columns (GE Healthcare). The purified protein was then refolded by diluting in 20 mM Hepes pH 7.0, 0.5 M NaCl, 1 mM DTT, 1 mM EDTA, 0.5 M arginine plus 6 M urea, and then dialyzing overnight into the same buffer without the urea. The protein was further dialyzed into 20 mM Hepes, pH 6.5, 50 mM NaCl, 1 mM EDTA, 1 mM DTT, and concentrated using Hitrap SP sepharose FF columns (GE Healthcare). The concentrated protein was dialyzed into 20 mM Hepes, pH 7.0, 0.5M NaCl, 5 mM DTT and 10% glycerol, and stored at −80° C. until use.
Test compounds (3.43 mM stock in DMSO) were diluted 2-fold in series in DMSO (10 concentration points). Compound solutions (1.2 μl/well) were added into black 384-well polypropylene microplates (Matrix, Thermal Scientific). Twenty-two microliters per well of Assay Buffer (50 mM NaPi, pH 6.5, 50 mM KCl, 1 mM DTT and 0.5 mg/ml gamma globulin) and eight microliters per well of 82.5 nM purified eIF4E in Assay Buffer were added. The samples were incubated at room temperature (20-23° C.) for 15 min. Biotin labeled 4G2 peptide (Ac-Lys-Gln-Tyr-Asp-Arg-Glu-Phe-Leu-Leu-Asp-Phe-Gln-Phe-Met-Pro-Lys(Aha-Bio)-NH2, 1.75 μM stock in DMSO) was diluted to 0.14 μM in Assay Buffer (without DTT) and 5 μl/well was added. The samples were incubated at room temperature for 15 min. Five microliters per well of 6.4 nM Eu-streptavidin (Eu-SA, Perkin Elmer) and 80 nM Allophycocyanin (APC)-anti His antibody (Columbia Biosciences) in Assay Buffer (without DTT) were then added and the samples were incubated at room temperature for 20 min.
Assay signals were monitored by reading excitation at 340 nm and emission fluorescence at 615 nm and 665 nm on an Envision reader (Perkin Elmer). Normalized TR-FRET (time-resolved fluorescence resonance energy transfer) assay signal (Rn) was calculated by the formula: Rn═[(A−Ba−C×D)/(D−Bd)]×(Dc−Bd) • Where A is the fluorescence intensity of the sample at 665 nm, • D is the fluorescence intensity of the sample at 615 nm, • Ba and Bd are plate backgrounds at 665 nm and 615 nm, respectively, • Dc is the fluorescence intensity of 0.78 nM Eu-SA in the assay buffer at 615 nm • The cross-talk factor (C) is determined by the following formula: C=(Ac−Ba)/(Dc−Bd) • Where Ac is the fluorescence intensity of 0.78 nM Eu-SA in the assay buffer at 665 nm.
IC50 values were calculated using xLFit program (IDBS).

T1 sequence (P06730 28-217): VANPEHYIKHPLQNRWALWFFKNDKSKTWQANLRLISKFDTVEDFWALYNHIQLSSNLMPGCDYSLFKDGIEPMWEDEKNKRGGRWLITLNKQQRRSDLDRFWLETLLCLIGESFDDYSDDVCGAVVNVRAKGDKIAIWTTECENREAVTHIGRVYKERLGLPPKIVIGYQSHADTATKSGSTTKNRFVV

Compound	IC50 [µM]
CC(C)C(CC(=O)O)Nc1nc(-c2ccccc2)c(-c2ccc(-c3cnco3)cc2)s1 (centres unmarked) [Compound I-1]	> 25
CC(C)C(CC(=O)O)Nc1nc(-c2cncnc2)c(-c2ccc(-c3cnco3)cc2)s1 (centres unmarked) [Compound I-2]	> 25
CC(C)C(CC(=O)O)Nc1nc(-c2cccnc2)c(-c2ccc(-c3cnco3)cc2)s1 (centres unmarked) [Compound I-3]	> 25
CC(C)C(CC(=O)O)Nc1nc(-c2ccc(-c3cnco3)cc2)c(-c2cccc3[nH]ccc23)s1 (centres unmarked) [Compound I-4]	> 25
CC(C)(CNc1nc(-c2ccc(-c3cnco3)cc2)c(-c2ccccc2)s1)C(=O)O [Compound I-5]	> 25
CC(C)(CNc1nc(-c2ccc(-c3cnco3)cc2)c(-c2cncnc2)s1)C(=O)O [Compound I-6]	> 25
CC(C)(CNc1nc(-c2ccc(-c3cnco3)cc2)c(-c2cccc3[nH]ccc23)s1)C(=O)O [Compound I-8]	> 25
O=C(O)C1CN(c2nc(-c3ccc(-c4cnco4)cc3)c(-c3cccc4[nH]ccc34)s2)C1 [Compound I-12]	> 25
CC1(C(=O)O)CN(c2nc(-c3ccc(-c4cnco4)cc3)c(-c3cccc4[nH]ccc34)s2)C1 [Compound I-16]	> 25
CCCC(CNc1nc(-c2ccc(-c3cnco3)cc2)cs1)C(=O)O (centres unmarked) [Compound I-17]	> 25
CCCC(CNc1nc(-c2ccc(-c3cnco3)cc2)c(-c2ccccc2)s1)C(=O)O (centres unmarked) [Compound I-18]	5 to 25
CCCC(CNc1nc(-c2cncnc2)c(-c2ccc(-c3cnco3)cc2)s1)C(=O)O (centres unmarked) [Compound I-19]	> 25
CCCC(CNc1nc(-c2cccnc2)c(-c2ccc(-c3cnco3)cc2)s1)C(=O)O (centres unmarked) [Compound I-20]	> 25
CCCC(CNc1nc(-c2ccc(-c3cnco3)cc2)c(-c2cccc3[nH]ccc23)s1)C(=O)O (centres unmarked) [Compound I-21]	> 25
CC(CC(=O)O)Nc1nc(-c2ccc(-c3cnco3)cc2)c(-c2ccccc2)s1 (centres unmarked) [Compound I-22]	> 25
CC(CC(=O)O)Nc1nc(-c2ccc(-c3cnco3)cc2)c(-c2cncnc2)s1 (centres unmarked) [Compound I-23]	> 25
CC(CC(=O)O)Nc1nc(-c2ccc(-c3cnco3)cc2)c(-c2cccc3[nH]ccc23)s1 (centres unmarked) [Compound I-25]	> 25

Compound	IC50 [µM]
CC(CNc1nc(-c2ccc(-c3cnco3)cc2)cs1)C(=O)O (centres unmarked) [Compound I-26]	> 25
CC(CNc1nc(-c2ccc(-c3cnco3)cc2)c(-c2ccccc2)s1)C(=O)O (centres unmarked) [Compound I-27]	> 25
CC(CNc1nc(-c2ccc(-c3cnco3)cc2)c(-c2cncnc2)s1)C(=O)O (centres unmarked) [Compound I-28]	> 25
CC(CNc1nc(-c2ccc(-c3cnco3)cc2)c(-c2cccc3[nH]ccc23)s1)C(=O)O (centres unmarked) [Compound I-30]	> 25
O=C(O)C1CCCN(c2nc(-c3ccc(-c4cnco4)cc3)c(-c3cccc4[nH]ccc34)s2)C1 (centres unmarked) [Compound I-34]	> 25
O=C(O)CC1CCCN1c1nc(-c2ccc(-c3cnco3)cc2)cs1 (centres unmarked) [Compound I-35]	> 25
O=C(O)CC1CCCN1c1nc(-c2ccc(-c3cnco3)cc2)c(-c2ccccc2)s1 (centres unmarked) [Compound I-36]	> 25
O=C(O)CC1CCCN1c1nc(-c2ccc(-c3cnco3)cc2)c(-c2cncnc2)s1 (centres unmarked) [Compound I-37]	> 25
O=C(O)CC1CCCN1c1nc(-c2ccc(-c3cnco3)cc2)c(-c2cccc3[nH]ccc23)s1 (centres unmarked) [Compound I-39]	> 25
O=C(O)C1(CNc2nc(-c3ccc(-c4cnco4)cc3)c(-c3ccccc3)s2)CC1 [Compound I-44]	> 25
O=C(O)C1(CNc2nc(-c3ccc(-c4cnco4)cc3)c(-c3cncnc3)s2)CC1 [Compound I-45]	> 25
O=C(O)C1(CNc2nc(-c3ccc(-c4cnco4)cc3)c(-c3cccc4[nH]ccc34)s2)CC1 [Compound I-47]	> 25
O=C(O)C1CCN(c2nc(-c3ccc(-c4cnco4)cc3)c(-c3cccc4[nH]ccc34)s2)CC1 [Compound I-55]	> 25
CC1(C(=O)O)CCCN(c2nc(-c3ccc(-c4cnco4)cc3)c(-c3cccc4[nH]ccc34)s2)C1 (centres unmarked) [Compound I-63]	> 25
CC(C)C(CC(=O)O)Nc1nc(-c2ccc(-c3ccc(F)cc3)cc2)cs1 (centres unmarked) [Compound I-64]	5 to 25
CC(C)C(CC(=O)O)Nc1nc(-c2ccc(-c3ccc(F)cc3)cc2)c(Br)s1 (centres unmarked) [Compound I-65]	5 to 25
CC(C)C(CC(=O)O)Nc1nc(-c2ccc(-c3ccc(F)cc3)cc2)c(-c2ccccc2)s1 (centres unmarked) [Compound I-66]	< 5

Results, then the compound that gave them:

IC50 [µM]	Compound
> 25	CC(C)(CNc1nc(-c2ccc(-c3cnco3)cc2)c(-c2cccnc2)s1)C(=O)O [Compound I-7]
> 25	O=C(O)C1CN(c2nc(-c3ccc(-c4cnco4)cc3)c(-c3ccccc3)s2)C1 [Compound I-9]
> 25	O=C(O)C1CN(c2nc(-c3ccc(-c4cnco4)cc3)c(-c3cncnc3)s2)C1 [Compound I-10]
> 25	O=C(O)C1CN(c2nc(-c3ccc(-c4cnco4)cc3)c(-c3cccnc3)s2)C1 [Compound I-11]
> 25	CC1(C(=O)O)CN(c2nc(-c3ccc(-c4cnco4)cc3)c(-c3ccccc3)s2)C1 [Compound I-13]
> 25	CC1(C(=O)O)CN(c2nc(-c3ccc(-c4cnco4)cc3)c(-c3cncnc3)s2)C1 [Compound I-14]
> 25	CC1(C(=O)O)CN(c2nc(-c3ccc(-c4cnco4)cc3)c(-c3cccnc3)s2)C1 [Compound I-15]
> 25	CC(CC(=O)O)Nc1nc(-c2ccc(-c3cnco3)cc2)c(-c2cccnc2)s1 (centres unmarked) [Compound I-24]
> 25	CC(CNc1nc(-c2ccc(-c3cnco3)cc2)c(-c2cccnc2)s1)C(=O)O (centres unmarked) [Compound I-29]
> 25	O=C(O)C1CCCN(c2nc(-c3ccc(-c4cnco4)cc3)c(-c3ccccc3)s2)C1 (centres unmarked) [Compound I-31]
> 25	O=C(O)C1CCCN(c2nc(-c3ccc(-c4cnco4)cc3)c(-c3cncnc3)s2)C1 (centres unmarked) [Compound I-32]
> 25	O=C(O)C1CCCN(c2nc(-c3ccc(-c4cnco4)cc3)c(-c3cccnc3)s2)C1 (centres unmarked) [Compound I-33]
> 25	O=C(O)CC1CCCN1c1nc(-c2ccc(-c3cnco3)cc2)c(-c2cccnc2)s1 (centres unmarked) [Compound I-38]
> 25	O=C(O)C1CCN(c2nc(-c3ccc(-c4cnco4)cc3)c(-c3ccccc3)s2)C1 (centres unmarked) [Compound I-40]
> 25	O=C(O)C1CCN(c2nc(-c3ccc(-c4cnco4)cc3)c(-c3cncnc3)s2)C1 (centres unmarked) [Compound I-41]
> 25	O=C(O)C1CCN(c2nc(-c3ccc(-c4cnco4)cc3)c(-c3cccnc3)s2)C1 (centres unmarked) [Compound I-42]
> 25	O=C(O)C1CCN(c2nc(-c3ccc(-c4cnco4)cc3)c(-c3cccc4[nH]ccc34)s2)C1 (centres unmarked) [Compound I-43]
> 25	O=C(O)C1(CNc2nc(-c3ccc(-c4cnco4)cc3)c(-c3cccnc3)s2)CC1 [Compound I-46]
> 25	O=C(O)C1CCN(c2nc(-c3ccc(-c4cnco4)cc3)c(-c3ccccc3)s2)CC1 [Compound I-52]
> 25	O=C(O)C1CCN(c2nc(-c3ccc(-c4cnco4)cc3)c(-c3cncnc3)s2)CC1 [Compound I-53]
> 25	O=C(O)C1CCN(c2nc(-c3ccc(-c4cnco4)cc3)c(-c3cccnc3)s2)CC1 [Compound I-54]
> 25	O=C(O)C1CN(c2nc(-c3ccc(-c4cnco4)cc3)c(-c3ccccc3)s2)CCO1 (centres unmarked) [Compound I-56]
> 25	O=C(O)C1CN(c2nc(-c3ccc(-c4cnco4)cc3)c(-c3cncnc3)s2)CCO1 (centres unmarked) [Compound I-57]
> 25	O=C(O)C1CN(c2nc(-c3ccc(-c4cnco4)cc3)c(-c3cccnc3)s2)CCO1 (centres unmarked) [Compound I-58]
> 25	O=C(O)C1CN(c2nc(-c3ccc(-c4cnco4)cc3)c(-c3cccc4[nH]ccc34)s2)CCO1 (centres unmarked) [Compound I-59]
> 25	CC1(C(=O)O)CCCN(c2nc(-c3ccc(-c4cnco4)cc3)c(-c3ccccc3)s2)C1 (centres unmarked) [Compound I-60]
> 25	CC1(C(=O)O)CCCN(c2nc(-c3ccc(-c4cnco4)cc3)c(-c3cncnc3)s2)C1 (centres unmarked) [Compound I-61]
> 25	CC1(C(=O)O)CCCN(c2nc(-c3ccc(-c4cnco4)cc3)c(-c3cccnc3)s2)C1 (centres unmarked) [Compound I-62]
